The values that follow come from US4230712A, “7-Methyl-8β-lower alkyl or 7-methyl-8-lower alkyl B/C cis or trans morphinan-6-one compounds and therapeutic method of treating pain employing them” (Miles Laboratories, Inc., priority 1978, dated 1980).

One assay has as its system rats. Nature of the assay: narcotic antagonist activity, modified rat tail flick test against morphine. Further details: AD50: unit not given here. The following applies: for analgesic (agonist)/narcotic antagonist activity profile / narcotic antagonist activity: in words; for AD50: rat tail flick, dose inhibiting the morphine (ED80 dose s.c.) effect by 50%, IA @ dose = inactive at that dose; for narcotic antagonist potency relative to TR-5222: more potent than TR-5222 by a factor. It counts as in vivo, male albino Wistar rats. On the procedure: (B) Narcotic antagonist activity in rats (modified rat tail flick test).
TEST B. EVALUATION OF NARCOTIC ANTAGONIST ACTIVITY
The narcotic antagonist effects of test compounds were determined by a modification of the rat tail flick procedure of Harris and Pierson (J. Pharmacol. Exp. Ther. 143:141 [1964]).
Male albino Wistar rats (100-120 g) were used for this study. A rat's tail is so placed so as to cover a photocell. Heat is applied by a lamp in a reflector with a timer being connected to the lamp and photocell so that the timer goes on when the light is turned on and is turned off when the photocell is uncovered. A rheostat, incorporated into a heating lamp is used to adjust the intensity of the light falling on the tail of the rat such that the rat's control reaction time is from two to four seconds. Animals with a control reaction time outside this range are rejected. The rheostat adjustment is made only if a significant proportion (more than 2 out of every 10 rats) of the reaction times are outside the range of two to four seconds. Groups of five rats were used each time, and two control times were determined at 60 and 30 minutes prior to subcutaneous injection of the drug.
Thirty minutes after the last control run the test drug was given intraperitoneally. This was followed ten minutes later by an ED80 dose of morphine subcutaneously. The animals were retested at 20 minutes after the morphine injection. Control animals were given vehicle and morphine only. The data were calculated as follows: [formula]
The data were plotted on log-probit paper and AD50 values, i.e., the dose required to inhibit the morphine effect by 50% within 95% confidence limits, were determined by the method of Litchfield and Wilcoxon.

A further assay concerns mice. Nature of the assay: acetic acid mouse writhing test (analgesic effect, s.c.). It counts as in vivo, male CD-1 mice. The following applies: for ED50: mouse acetic acid writhing, s.c., dose reducing the number of writhes by 50%, IA @ dose = inactive at that dose; for duration of action: footnote ** to the ED50 value; for analgesic activity: in words; for analgesic potency relative to TR-5222: more potent than TR-5222 by a factor. How it is done:
(A) Analgesic effects upon mice (acetic acid writhing test).
TEST A. ACETIC ACID MOUSE WRITHING TEST
The analgesic effects of test compounds were determined in mice by use of the acetic acid writhing test described by B. J. R. Whittle, Brit. J. Pharmacol., 22:246 (1964). In this test at least three groups of five male CD-1 mice (18-22 g) each were given subcutaneous doses of the test drug dissolved in either distilled water or distilled water acidified with HCl depending on the solubility of the compound. In all cases, 0.4 milliliter of a 0.5% V/V acetic acid in distilled water solution was administered intraperitoneally 15 minutes post drug. The number of writhes in a 20 min. interval beginning 5 minutes after the acetic acid injection were determined and compared with the number of writhes in control groups which had received only acetic acid.
Percent inhibition of writhing was calculated as: [formula]
The ED50 dose, i.e., the dose required to reduce the number of writhes by 50%, was determined graphically from a plot of % inhibition as a probit versus log dose. Confidence limits of 95% were calculated on the basis of those results falling in the range 16-84% inhibition. See Litchfield, J. T. and Wilcoxon, F., J. Pharmacol. Exp. Ther., 96, 99-113, (1949).

The mark [1] stands for this setting: conclusion from Tests A and B, Hydrochloride.

Entries after “also recorded” stand apart in the source; their conditions may differ. Where a name gives a salt, the structure may show the parent alone. Read-outs that look alike come from different tables or passages of the source.

In general, ED50 refers to the midpoint of the dose-response relation. For the compound `CC[C@@H]1[C@H]2[C@H]3Cc4ccc(O)cc4[C@@]2(CCN3CC2CCC2)CC(=O)[C@H]1C` [TR-5333, 17-Cyclobutylmethyl-8β-ethyl-3-hydroxy-7α-methyl-morphinan-6-one], in the assay with rats (conclusion from Tests A and B), the “analgesic (agonist)/narcotic antagonist activity profile” value was “both analgesic and narcotic antagonist activity”. The AD50 in the assay on rats is listed as 1.95. Also, in the assay on mice (sc, read-out: ED50), the ED50 worked out at 3.3 mg/kg.
Regarding `C[C@@H]1[C@H]2[C@H]3Cc4ccc(O)cc4[C@@]2(CCN3CC2CCC2)CC(=O)[C@H]1C` [TR-5195, 17-Cyclobutylmethyl-7α,8β-dimethyl-3-hydroxymorphinan-6-one], in the assay on rats (conclusion from Tests A and B), the “analgesic (agonist)/narcotic antagonist activity profile” value is “analgesic and narcotic antagonist activity”. This compound gave an AD50 in the assay with rats of 2.0. Moreover, the ED50 with mice (sc, read-out: ED50) came to 0.78 mg/kg.
As to `COc1ccc2c(c1)[C@]13CCN(CC4CC4)[C@H](C2)[C@@H]1[C@@H](C)[C@H](C)C(=O)C3` [TR-5188, 17-Cyclopropylmethyl-7α,8β-dimethyl-3-methoxy-morphinan-6-oneHydrochloride], the “analgesic (agonist)/narcotic antagonist activity profile” value in the assay on rats (conclusion from Tests A and B) is “mixed analgesic/narcotic antagonist”. Moreover, the AD50 with rats stood at 4.7. Further, the ED50 in the assay with mice (sc, read-out: ED50) came to 1.03 mg/kg.
For `O=C1CC[C@@H]2[C@H]3Cc4ccc(O)cc4[C@@]2(CCN3CC2CC2)C1` [TR-5222, 17-Cyclopropylmethyl-3-hydroxy-isomorphinan-6-one Hydrochloride, reference compound], the “analgesic (agonist)/narcotic antagonist activity profile” value with rats (conclusion from Tests A and B) was “mixed analgesic and narcotic antagonist activity”. The compound also registered an AD50 in the assay with rats of 0.78. For the same compound, the “duration of action” value with mice is “short acting”. In the assay with mice (sc, read-out: ED50), the ED50 was determined as 3.11 mg/kg.
In the assay with rats, `COc1ccc2c(c1)[C@]13CCN(CC4CC4)[C@H](C2)[C@H]1C[C@@H](C)C(=O)C3` [TR-5205, 17-Cyclopropylmethyl-3-methoxy-7β-methyl-isomorphinan-6-one Hydrochloride] displayed an AD50 of 1.2. Also, the ED50 with mice (sc, read-out: ED50) was > 15 mg/kg.
In the case of `COc1ccc2c(c1)[C@]13CCN(CC4CC4)[C@H](C2)[C@@H]1[C@@H](C)CC(=O)C3` [TR-5119, 17-Cyclopropylmethyl-3-Methoxy-8β-Methylmorphinan-6-one], in the assay on rats, the narcotic antagonist activity result is recorded as “good activity” and the AD50 came out at 1.45. Further, the analgesic activity entry in the assay on mice was “good activity”. For the same compound, the ED50 with mice (sc, read-out: ED50) came to 0.24 mg/kg.
As for `COc1ccc2c(c1)[C@]13CCN(CC4CCC4)[C@H](C2)[C@H]1[C@H](C)[C@@H](C)C(=O)C3` [TR-5332, 17-Cyclobutylmethyl-7β,8α-dimethyl-3-methoxy-isomorphinan-6-one Hydrochloride], the AD50 in the assay on rats is recorded as > 10. Also, in the assay on mice (sc, read-out: ED50), the 50% effective dose (ED50) is > 10 mg/kg.
With `C[C@H]1[C@@H]2[C@H]3Cc4ccc(O)cc4[C@@]2(CCN3CC2CC2)CC(=O)[C@@H]1C` [TR-5343, 17-Cyclopropylmethyl-7β,8α-dimethyl-3-hydroxy-isomorphinan-6-one Hydrobromide], in the assay with rats (conclusion from Tests A and B), the “analgesic (agonist)/narcotic antagonist activity profile” value is “mixed analgesic and narcotic antagonist activity”. In addition, in the assay with rats, the “narcotic antagonist potency relative to TR-5222” value is “approximately two” and the AD50 was 0.43. In the assay on rats (vs geometric isomer TR-5196), the “narcotic antagonist potency relative to TR-5196” value is “somewhat less potent”. The “analgesic potency relative to TR-5222” value with mice is “approximately two”. In the assay with mice (sc, read-out: ED50), the ED50 is 1.89 mg/kg. Moreover, the “analgesic potency relative to TR-5196” value with mice (times as potent as geometric isomer TR-5196) is “approximately 4 times”.
As for `C[C@@H]1C[C@@H]2[C@H]3Cc4ccc(O)cc4[C@@]2(CCN3CC2CC2)CC1=O` [TR-5225, 17-Cyclopropylmethyl-3-hydroxy-7β-methyl-isomorphinan-6-one Hydrobromide], in the assay with rats, the “narcotic antagonist potency relative to TR-5222” value is recorded as “approximately 2” and the AD50 was found to be 0.48. In addition, the “narcotic antagonist potency relative to TR-5205” value with rats (vs TR-5205) is “approximately twice as potent”. Moreover, in the assay with mice, the “duration of action” value is listed as “short acting” and the “analgesic potency relative to TR-5222” value is on record as “greater than four”. In the assay with mice (sc, read-out: ED50), the median effective dose (ED50) stood at 0.72 mg/kg. Besides, the “analgesic potency relative to TR-5205” value in the assay on mice (vs TR-5205) was “much more potent”.
`CC[C@H]1[C@@H]2[C@H]3Cc4ccc(O)cc4[C@@]2(CCN3CC2CCC2)CC(=O)[C@@H]1C` [TR-5370, 17-Cyclobutylmethyl-8α-ethyl-3-hydroxy-7β-methyl-isomorphinan-6-one Hydrochloride]: in the assay with rats, the narcotic antagonist activity result was “essentially inactive” and the AD50 was > 10. Besides, in the assay on mice, the analgesic activity result was “essentially inactive” and the ED50 entry was “IA @ 10”.
Take `COc1ccc2c(c1)[C@]13CCN(CC4CC4)[C@H](C2)[C@H]1[C@H](C)[C@@H](C)C(=O)C3` [TR-5331, 17-Cyclopropylmethyl-7β,8α-dimethyl-3-methoxy-isomorphinan-6-one Hydrochloride]: in the assay on rats, the narcotic antagonist activity result was “essentially inactive” and the AD50 is recorded as > 10. Further, the analgesic activity result in the assay on mice was “essentially inactive”. Moreover, the ED50 in the assay with mice (sc, read-out: ED50) is > 10 mg/kg.
Regarding `O=C1CC[C@@H]2[C@H]3Cc4ccc(O)cc4[C@@]2(CCN3CC2CCC2)C1` [TR-5223, 17-Cyclobutylmethyl-3-hydroxy-isomorphinan-6-one Hydrochloride, reference compound], the “analgesic (agonist)/narcotic antagonist activity profile” value with rats (setting [1]) is recorded as “mixed agonist/antagonist activity; also recorded: mixed analgesic/narcotic antagonist activity”. In addition, the AD50 in the assay with rats amounted to 5.0. The “mixed agonist/antagonist activity relative to TR-5130” value in the assay on rats (vs TR-5130, conclusion from Tests A and B) was “substantially less than that of TR-5130”. For the same compound, the “narcotic antagonist potency relative to TR-5200” value in the assay with rats (vs TR-5200) was “significantly less potent”. Besides, the ED50 in the assay on mice (sc, read-out: ED50) is 0.94 mg/kg. Besides, the “analgesic potency relative to TR-5200” value in the assay on mice (vs TR-5200) is “significantly less potent”.
On to `C[C@H]1CC(=O)C[C@]23CCN(CC4CCC4)[C@H](Cc4ccc(O)cc42)[C@H]13.Cl` [TR-5130, 17-Cyclobutylmethyl-3-hydroxy-8β-methylmorphinan-6-one Hydrochloride], for which, in the assay with rats (conclusion from Tests A and B), the “analgesic (agonist)/narcotic antagonist activity profile” value is “mixed agonist/antagonist activity”. In addition, the AD50 with rats is reported as 1.05. For the same compound, the ED50 with mice (sc, read-out: ED50) is 0.11 mg/kg.
Consider `C[C@@H]1[C@H]2[C@H]3Cc4ccc(O)cc4[C@@]2(CCN3CC2CC2)CC(=O)[C@H]1C` [TR-5196, 17-Cyclopropylmethyl-7α,8β-dimethyl-3-hydroxy-morphinan-6-one], for which the AD50 with rats was 0.12. Moreover, the median effective dose (ED50) in the assay on mice (sc, read-out: ED50) worked out at 7.8 mg/kg.
As for `COc1ccc2c(c1)[C@]13CCN(CC4CCC4)[C@H](C2)[C@@H]1CCC(=O)C3.Cl` [TR-5148, 17-Cyclobutylmethyl-3-methoxymorphinan-6-one Hydrochloride, reference compound], in the assay on rats, the narcotic antagonist activity entry is “does not exhibit activity as a narcotic antagonist” and the AD50 entry is “IA @ 10”. Moreover, the analgesic activity entry in the assay on mice was “potent analgesic”. The ED50 with mice (sc, read-out: ED50) was found to be 0.22 mg/kg.
`Cl.O=C1CC[C@H]2[C@H]3Cc4ccc(O)cc4[C@@]2(CCN3CC2CCC2)C1` [TR-5153, 17-Cyclobutylmethyl-3-hydroxymorphinan-6-one Hydrochloride, reference compound]: the “analgesic (agonist)/narcotic antagonist activity profile” value with rats (setting [1]) is “pure agonist; also recorded: pure analgesic”. Besides, in the assay with rats, the AD50 entry was “IA @ 10”. In the assay with mice (sc, read-out: ED50), the ED50 worked out at 0.017 mg/kg.
In the assay with rats, `COc1ccc2c(c1)[C@]13CCN(CC4CC4)[C@H](C2)[C@@H]1CCC(=O)C3` [TR-5152, 17-Cyclopropylmethyl-3-methoxymorphinan-6-one Hydrochloride, reference compound] showed an AD50 of 5.4. Besides, the ED50 in the assay on mice (sc, read-out: ED50) came out at 0.24 mg/kg.
